Laboratory results from ChEMBL document CHEMBL1201862, “PubChem BioAssay data set” (2004).
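Values below derive from 48-hour exposures of cells grown in 96-well plates, with endpoints linearly interpolated between the two concentrations bracketing the appropriate inhibition level. GI50 = concentration required for 50% inhibition of growth.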 Activity calls are given as the source filed them. Cut-off read from the data, not from the text of the source: active = GI50 up to about 1.1 µM and inactive = higher.

Tests used:
Assay in all cases: inhibition of tumour cell growth, NCI panel, 48 h
[1] = system: A549
[2] = system: BT-549
[3] = system: COLO 205
[4] = system: HL-60
[5] = system: HOP-92
[6] = system: HT-29
[7] = system: IGROV-1
[8] = system: KM12
[9] = system: MCF7
[10] = system: MDA-MB-231
[11] = system: NCI-H460
[12] = system: NCI-H522
[13] = system: NCI/ADR-RES
[14] = system: OVCAR-4
[15] = system: OVCAR-8
[16] = system: PC-3
[17] = system: SF-295
[18] = system: SF-539
[19] = system: SK-MEL-28
[20] = system: SK-MEL-2
[21] = system: SK-MEL-5
[22] = system: SN12C
[23] = system: SNB-19
[24] = system: TK-10
[25] = system: UACC-257
[26] = system: UACC-62
[27] = system: UO-31
[28] = system: 786-0
[29] = system: A498
[30] = system: ACHN
[31] = system: CAKI-1
[32] = system: CCRF-CEM
[33] = system: DU-145
[34] = system: EKVX
[35] = system: HCC 2998
[36] = system: HCT-116
[37] = system: HCT-15
[38] = system: HOP-62
[39] = system: Hs-578T
[40] = system: K562
[41] = system: LOX IMVI
[42] = system: M14
[43] = system: MDA-MB-435
[44] = system: MDA-N
[45] = system: MOLT-4
[46] = system: Malme-3M
[47] = system: NCI-H23
[48] = system: OVCAR-3
[49] = system: OVCAR-5
[50] = system: RPMI-8226
[51] = system: RXF 393
[52] = system: SF-268
[53] = system: SK-OV-3
[54] = system: SNB-75
[55] = system: SR
[56] = system: SW-620
[57] = system: T47D
[58] = system: U-251
[59] = system: NCI-H226

Cc1cn2c(/C=N/NC(=N)N)c(-c3cc([N+](=O)[O-])c(Cl)cc3Cl)nc2s1
GI50 [1]: 4.06 µM (inactive) | GI50 [2]: 2.51 µM (inactive) | GI50 [3]: 0.55 µM (active) | GI50 [4]: 1.61 µM (inactive) | GI50 [5]: 3.32 µM (inactive) | GI50 [6]: 1.13 µM (inactive) | GI50 [7]: 1.8 µM (inactive) | GI50 [8]: 0.455 µM (active) | GI50 [9]: 0.49 µM (active) | GI50 [10]: 2.4 µM (inactive) | GI50 [11]: 2.29 µM (inactive) | GI50 [12]: 1.47 µM (inactive) | GI50 [13]: > 100 µM (inactive) | GI50 [14]: 1.91 µM (inactive) | GI50 [15]: 2.63 µM (inactive) | GI50 [16]: 2.34 µM (inactive) | GI50 [17]: 2.08 µM (inactive) | GI50 [18]: 2.52 µM (inactive) | GI50 [19]: 2.22 µM (inactive) | GI50 [20]: 2.35 µM (inactive) | GI50 [21]: 2.77 µM (inactive) | GI50 [22]: 2.24 µM (inactive) | GI50 [23]: 1.87 µM (inactive) | GI50 [24]: 2.3 µM (inactive) | GI50 [25]: 2.24 µM (inactive) | GI50 [26]: 1.98 µM (inactive) | GI50 [27]: 1.83 µM (inactive)

CCN(CC)C(=O)C1=C(C)NC(C)=C(C(=O)N(CC)CC)C1
GI50 [28]: > 100 µM (inactive) | GI50 [29]: > 100 µM (inactive) | GI50 [1]: > 100 µM (inactive) | GI50 [30]: > 100 µM (inactive) | GI50 [31]: > 100 µM (inactive) | GI50 [32]: > 100 µM (inactive) | GI50 [3]: > 100 µM (inactive) | GI50 [33]: > 100 µM (inactive) | GI50 [34]: > 100 µM (inactive) | GI50 [35]: > 100 µM (inactive) | GI50 [36]: > 100 µM (inactive) | GI50 [37]: > 100 µM | GI50 [4]: > 100 µM (inactive) | GI50 [38]: > 100 µM (inactive) | GI50 [5]: > 100 µM (inactive) | GI50 [39]: 44.7 µM (inactive) | GI50 [7]: > 100 µM (inactive) | GI50 [40]: 41.4 µM (inactive) | GI50 [8]: > 100 µM (inactive) | GI50 [41]: > 100 µM (inactive) | GI50 [42]: > 100 µM (inactive) | GI50 [9]: > 100 µM (inactive) | GI50 [10]: 39.4 µM (inactive) | GI50 [43]: 81.1 µM (inactive) | GI50 [44]: > 100 µM (inactive) | GI50 [45]: > 100 µM (inactive) | GI50 [46]: > 100 µM (inactive) | GI50 [47]: > 100 µM (inactive) | GI50 [11]: > 100 µM (inactive) | GI50 [12]: > 100 µM (inactive) | GI50 [48]: > 100 µM (inactive) | GI50 [14]: > 100 µM (inactive) | GI50 [49]: > 100 µM (inactive) | GI50 [16]: > 100 µM (inactive) | GI50 [50]: > 100 µM (inactive) | GI50 [51]: > 100 µM (inactive) | GI50 [52]: 53 µM (inactive) | GI50 [17]: > 100 µM (inactive) | GI50 [18]: > 100 µM (inactive) | GI50 [19]: > 100 µM (inactive) | GI50 [20]: > 100 µM (inactive) | GI50 [21]: > 100 µM (inactive) | GI50 [53]: > 100 µM (inactive) | GI50 [22]: > 100 µM (inactive) | GI50 [23]: > 100 µM (inactive) | GI50 [54]: 14.5 µM (inactive) | GI50 [55]: > 100 µM (inactive) | GI50 [56]: > 100 µM (inactive) | GI50 [57]: 58.1 µM (inactive) | GI50 [24]: > 100 µM (inactive) | GI50 [58]: > 100 µM (inactive) | GI50 [25]: > 100 µM (inactive) | GI50 [26]: > 100 µM (inactive) | GI50 [27]: 81.1 µM (inactive)

CN(C)CCCNC(=O)c1cc(NC(=O)c2cc(NC(=O)[C@@H]3C[C@H]3C(=O)Nc3cc(C(=O)Nc4cc(C(=O)NCCCN(C)C)n(C)c4)n(C)c3)cn2C)cn1C
GI50 [28]: > 100 µM (inactive) | GI50 [1]: > 100 µM (inactive) | GI50 [30]: > 100 µM (inactive) | GI50 [2]: > 100 µM (inactive) | GI50 [31]: > 100 µM (inactive) | GI50 [32]: > 100 µM (inactive) | GI50 [3]: > 100 µM (inactive) | GI50 [33]: > 100 µM (inactive) | GI50 [34]: > 100 µM (inactive) | GI50 [35]: 20.9 µM (inactive) | GI50 [36]: > 100 µM (inactive) | GI50 [4]: > 100 µM (inactive) | GI50 [38]: > 100 µM (inactive) | GI50 [5]: > 100 µM (inactive) | GI50 [6]: > 100 µM (inactive) | GI50 [7]: > 100 µM (inactive) | GI50 [40]: > 100 µM (inactive) | GI50 [8]: > 100 µM (inactive) | GI50 [41]: > 100 µM (inactive) | GI50 [42]: > 100 µM (inactive) | GI50 [9]: > 100 µM (inactive) | GI50 [10]: > 100 µM (inactive) | GI50 [43]: > 100 µM (inactive) | GI50 [45]: > 100 µM (inactive) | GI50 [46]: > 100 µM (inactive) | GI50 [59]: > 100 µM (inactive) | GI50 [47]: > 100 µM (inactive) | GI50 [11]: > 100 µM (inactive) | GI50 [12]: > 100 µM (inactive) | GI50 [13]: > 100 µM (inactive) | GI50 [14]: > 100 µM (inactive) | GI50 [49]: > 100 µM (inactive) | GI50 [15]: > 100 µM (inactive) | GI50 [16]: > 100 µM (inactive) | GI50 [50]: > 100 µM (inactive) | GI50 [52]: > 100 µM (inactive) | GI50 [17]: > 100 µM (inactive) | GI50 [18]: > 100 µM (inactive) | GI50 [19]: > 100 µM (inactive) | GI50 [20]: > 100 µM (inactive) | GI50 [21]: > 100 µM (inactive) | GI50 [22]: > 100 µM (inactive) | GI50 [23]: > 100 µM (inactive) | GI50 [54]: > 100 µM (inactive) | GI50 [55]: > 100 µM (inactive) | GI50 [56]: > 100 µM (inactive) | GI50 [58]: > 100 µM (inactive) | GI50 [25]: > 100 µM (inactive)

O=c1[nH]cnc2sc(=S)c3c(c12)CCC3
GI50 [28]: 15.5 µM (inactive) | GI50 [1]: 68.7 µM (inactive) | GI50 [30]: 17.3 µM (inactive) | GI50 [31]: 19.3 µM (inactive) | GI50 [32]: 21 µM (inactive) | GI50 [3]: 14.4 µM (inactive) | GI50 [33]: 39 µM (inactive) | GI50 [34]: 47.6 µM (inactive) | GI50 [36]: 31.3 µM (inactive) | GI50 [37]: 29 µM | GI50 [4]: 22.2 µM (inactive) | GI50 [38]: 52.2 µM (inactive) | GI50 [5]: 23.8 µM (inactive) | GI50 [6]: 35.2 µM (inactive) | GI50 [39]: 48.5 µM (inactive) | GI50 [7]: 15.8 µM (inactive) | GI50 [40]: 12.2 µM (inactive) | GI50 [8]: 51.5 µM (inactive) | GI50 [41]: 24.7 µM (inactive) | GI50 [42]: 34.2 µM (inactive) | GI50 [9]: > 100 µM (inactive) | GI50 [10]: 32.6 µM (inactive) | GI50 [43]: 81.8 µM (inactive) | GI50 [45]: 11.7 µM (inactive) | GI50 [46]: 37.2 µM (inactive) | GI50 [59]: 20.8 µM (inactive) | GI50 [47]: 23.5 µM (inactive) | GI50 [11]: 44.1 µM (inactive) | GI50 [12]: 15.9 µM (inactive) | GI50 [13]: 36.9 µM (inactive) | GI50 [48]: 18.4 µM (inactive) | GI50 [14]: 33.5 µM (inactive) | GI50 [49]: 47.8 µM (inactive) | GI50 [15]: 38.4 µM (inactive) | GI50 [16]: 37 µM (inactive) | GI50 [50]: 18 µM (inactive) | GI50 [51]: 21.9 µM (inactive) | GI50 [52]: > 100 µM (inactive) | GI50 [17]: > 100 µM (inactive) | GI50 [18]: > 100 µM (inactive) | GI50 [19]: 40.1 µM (inactive) | GI50 [20]: > 100 µM (inactive) | GI50 [21]: 17.8 µM (inactive) | GI50 [53]: > 100 µM (inactive) | GI50 [22]: > 100 µM (inactive) | GI50 [23]: 48.5 µM (inactive) | GI50 [54]: > 100 µM (inactive) | GI50 [55]: 12.1 µM (inactive) | GI50 [56]: 21.6 µM (inactive) | GI50 [57]: 19.1 µM (inactive) | GI50 [24]: 25.2 µM (inactive) | GI50 [58]: > 100 µM (inactive) | GI50 [25]: 33.3 µM (inactive) | GI50 [26]: 40.9 µM (inactive) | GI50 [27]: 25.8 µM (inactive)
